The record followed here is ChEMBL document CHEMBL2029213, “Multiple determinants for selective inhibition of apicomplexan calcium-dependent protein kinase CDPK1” (J Med Chem, 2012).

Usually Ki stands for a dissociation constant, usually derived from enzyme kinetics or from competition with a known ligand.

Assay [1] has as its target Proto-oncogene tyrosine-protein kinase Src (Homo sapiens, UniProt P12931).
Description: Inhibition of human SRC by radiometric assay
The target in assay [2] is Tyrosine-protein kinase ABL1 (Homo sapiens, UniProt P00519).
Tyrosine-protein kinase ABL1, sequence (P00519 whole entry): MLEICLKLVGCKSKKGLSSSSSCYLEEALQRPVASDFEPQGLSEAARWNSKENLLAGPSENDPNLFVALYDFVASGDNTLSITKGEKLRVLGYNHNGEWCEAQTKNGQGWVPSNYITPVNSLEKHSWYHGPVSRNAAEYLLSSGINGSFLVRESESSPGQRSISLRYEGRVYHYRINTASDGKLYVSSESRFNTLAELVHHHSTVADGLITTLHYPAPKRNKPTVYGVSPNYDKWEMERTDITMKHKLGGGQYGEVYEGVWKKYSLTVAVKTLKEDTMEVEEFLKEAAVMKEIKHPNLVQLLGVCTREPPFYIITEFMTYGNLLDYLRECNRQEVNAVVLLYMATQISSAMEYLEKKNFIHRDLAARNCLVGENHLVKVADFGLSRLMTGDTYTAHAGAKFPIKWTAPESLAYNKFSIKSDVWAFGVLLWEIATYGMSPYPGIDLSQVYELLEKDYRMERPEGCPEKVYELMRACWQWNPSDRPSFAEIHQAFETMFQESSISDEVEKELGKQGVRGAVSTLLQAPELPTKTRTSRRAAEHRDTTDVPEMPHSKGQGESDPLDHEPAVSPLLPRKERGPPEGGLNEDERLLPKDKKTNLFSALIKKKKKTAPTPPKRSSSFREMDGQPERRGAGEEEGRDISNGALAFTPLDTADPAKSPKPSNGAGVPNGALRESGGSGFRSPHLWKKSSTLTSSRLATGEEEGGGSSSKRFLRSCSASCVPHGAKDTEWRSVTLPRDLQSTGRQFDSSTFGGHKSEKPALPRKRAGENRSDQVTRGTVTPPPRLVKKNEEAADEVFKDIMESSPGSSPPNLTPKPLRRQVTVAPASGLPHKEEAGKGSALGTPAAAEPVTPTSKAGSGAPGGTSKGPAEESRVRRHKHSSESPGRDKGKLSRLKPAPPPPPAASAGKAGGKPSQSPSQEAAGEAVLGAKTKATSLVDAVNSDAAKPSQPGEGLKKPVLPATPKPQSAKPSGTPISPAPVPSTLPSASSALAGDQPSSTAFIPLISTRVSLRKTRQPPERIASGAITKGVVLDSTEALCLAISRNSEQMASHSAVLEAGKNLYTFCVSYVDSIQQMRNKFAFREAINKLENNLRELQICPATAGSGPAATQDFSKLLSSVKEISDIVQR
Description: Inhibition of human ABL by radiometric assay

Proto-oncogene tyrosine-protein kinase Src, sequence (P12931 2-536 limits assumed): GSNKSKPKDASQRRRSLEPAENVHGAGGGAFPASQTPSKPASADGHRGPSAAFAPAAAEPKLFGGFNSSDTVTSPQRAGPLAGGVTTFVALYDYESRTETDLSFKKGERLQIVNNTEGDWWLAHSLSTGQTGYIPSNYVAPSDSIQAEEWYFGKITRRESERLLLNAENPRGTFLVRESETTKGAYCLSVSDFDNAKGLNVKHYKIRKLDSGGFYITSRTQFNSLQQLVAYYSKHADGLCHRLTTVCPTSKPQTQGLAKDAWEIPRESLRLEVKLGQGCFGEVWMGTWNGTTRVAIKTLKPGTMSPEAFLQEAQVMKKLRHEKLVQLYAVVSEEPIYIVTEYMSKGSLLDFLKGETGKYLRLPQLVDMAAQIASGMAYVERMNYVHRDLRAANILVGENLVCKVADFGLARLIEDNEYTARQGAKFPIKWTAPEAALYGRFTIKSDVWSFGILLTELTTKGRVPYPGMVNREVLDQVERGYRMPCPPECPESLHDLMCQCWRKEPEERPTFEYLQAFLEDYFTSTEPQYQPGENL

For the compound `Nc1ncnc2c1cnn2CC1CCNCC1`, the Ki in assay [1] and in assay [2] was more than 10 µM in each case.

As to `COc1ccc2cc(-c3nn(C(C)C)c4ncnc(N)c34)ccc2c1`, the affinity in assay [1] corresponds to a Ki of 0.77 µM.

Compound `CC(C)n1nc(-c2cc3c(Cl)cccc3[nH]2)c2c(N)ncnc21` registered a Ki in assay [1] of 1.24 µM. This Ki lies about 1.6-fold higher than the previous one.

For the compound `COc1ccc2cc(-c3nn(CC4CCNCC4)c4ncnc(N)c34)ccc2c1`, the Ki in assay [1] was more than 20 µM; in assay [2] it was more than 15 µM.

For the compound `CCOc1ccc2cc(-c3nn(CC4CCNCC4)c4ncnc(N)c34)ccc2c1`, the figures for the Ki in assay [1] and in assay [2] were more than 20 µM and more than 15 µM, respectively.

For `Nc1nc2ccc(C(=O)c3ccccc3)cc2n1CC1CCNCC1`, the Ki in assay [1] and in assay [2] was more than 10 µM each time.

`COC(=O)Nc1nc2ccc(C(=O)c3ccccc3)cc2[nH]1` [MEBENDAZOLE]: the Ki in assay [2] was found to be 4.6 µM.

Take `Nc1ncnc2c1c(-c1cnc3ccccc3c1)nn2CC1CCNCC1`: the Ki in assay [1] is more than 20 µM; in assay [2], more than 15 µM.

Turning to `Nc1nc2ccc(C(=O)c3ccccc3)cc2[nH]1`, the Ki is more than 10 µM in assay [1] and 10 µM in assay [2].
